# Measurements published in patent US10744233B2, “Crystallization inhibitor compositions for implantable urological devices” (Innovative Surface Technologies, Inc., priority 2016, dated 2020).
# Columns and labels:
# [1] = Encrustation assay in artificial urine without bacteria; details: two separate experiments (Table 3)
# Method: Artificial urine solutions contained either:
# The coatings were analyzed for encrustation.
# In addition, both the Wet 1 and Dry POC coatings were analyzed for encrustation using the same procedure described previously.
# [2] = Osteopontin elution assay (ELISA); type: physicochemical; details: 1X PBS, 37° C.
# Method: Osteopontin Elution Assay
# To determine the amount of osteopontin released, coated Parylene™ coated discs were placed in 2 mL of 1×PBS for up to 30 days. The buffer was exchanged at approximately 30 minutes, 1 hour, 1 day, 5 days, 10 days, 15 days, and 30 days. Eluted samples were refrigerated until assaying. Osteopontin was quantified using an Osteopontin ELISA kit (R &D Systems, Mpls, MN) following the kit's instructions.
# Sample discs coated with either osteopontin loaded PLGA coatings or empty PLGA coatings were placed in 1×PBS for elution over 30 days at 37° C., with the elution buffer exchanged at days 1, 5, 10, 15, and 30.
# Total release per disc was 0.3 ng osteopontin released over 30 days (6-mg PLGA coating/3 ng osteopontin loading per disc).
Compound,Reduction of encrustation compared to control empty PLGA [1],Reduction of encrustation compared to uncoated [1],Osteopontin release period ([2]; 30 days),"Total osteopontin release per disc ([2]; over 30 days, 6-mg PLGA coating/3 ng osteopontin loading per disc)"
O=C(O)CC(O)(CC(=O)O)C(=O)O [citric acid],26-48%,up to 66%,–,–
"osteopontin: human osteopontin (R&D Systems), sialoprotein; in b151 it is released from the osteopontin-loaded PLGA coating",–,–,released over the entire 30-day period,0.3 ng
